Data taken from patent US11680054B2, “Bronchodilating hetero-linked amides” (Arcede Pharma AB, priority 2018, dated 2023).
Converted amounts (≈) assume the structure as drawn.

What was measured:
[1] = Solubility in phosphate buffer (pH 7.4); assay type: physicochemical; conditions: aqueous buffer, thermodynamic from solid; phosphate buffer pH 7.4, agitated 20 hours at 37° C.
Description: The solubilities of 1-(5,8-Dichloro-6,7-dihydroxy-3,4-dihydroisoquinolin-2(1H)-yl)-2-(6-(trifluoromethyl)pyridin-3-ylthio)ethenone (example 1) and the known compound 1-(5,8-Dichloro-6,7-dihydroxy-3,4-dihydroisoquinolin-2(1H)-yl)-2-(6-(trifluoromethyl)pyridine-3-yloxy)ethanone in phosphate buffer (pH 7.4) were determined.
Briefly, 1 mg of the study compounds were weighted into glass vials (two replicates). 2 ml of pH 7.4 phosphate buffer was added into the vials and vials were then agitated (1300 rpm) 20 hours at 37° C. Samples were filtrated using 0.45 μm PVDA syringe filters before analysis. 10 μg/ml and 500 μg/ml standard solutions in acetonitrile:ultra-pure water were prepared using 10 mM DMSO-stock solution. Samples and standards were analyzed from glass vials. The samples were analyzed using UPLC/PDA immediately after preparation. A Waters Acquity ultra high-performance liquid chromatographic (UPLC) system with autosampler, vacuum degasser, photo-diode-array detector (Acquity PDA) and column oven was used.

human bronchiols = experiment: Leukotriene D4 induced contraction of human bronchus preparations, in vitro model; conditions: pre-treatment with compound at 10 μM; Leukotriene D4 (10 nM) induced contraction of human bronchiols
Description: (§1) The usefulness of the compounds, as defined in the preceding embodiments, in treating, pretreating, revoking, mitigating, alleviating and/or preventing a condition of the respiratory apparatus characterized by bronchoconstriction, were evaluated in a complex and relevant in vitro model. The in vitro model was in accordance with the in vitro model disclosed in US 2006-0040254 A1 and Skogvall, S., Berglund, M., Dalence-Guzmán, M. F., Svensson, K., Jönsson, P., Persson, C. G. A and Sterner, O., Pulmonary Pharmacology and Therapeutics, vol 20:3, 2007, p. 273-280. All references disclosed herein are hereby incorporated in their entirety by reference.
In short, lung tissue was obtained from patients undergoing lobectomia or pulmectomia due to lung carcinoma. From the bronchus of this tissue were rectangular oblong preparations obtained. The contraction induced by inflammatory mediators, such as Leukotriene D4, histamine, prostaglandin D2 or acetylcholine, in the presence and absence of the compound to be evaluated, were compared.
as §1, with “embodiments herein,” for “preceding embodiments,”, “treating,” for “treating, pretreating,”, “model, which is described” for “model. The in vitro model was in accordance with the in vitro model disclosed”
The remaining contraction, after pre-treatment with various compound examples at a concentration of 10 μM, of human bronchiols after Leukotriene D4 (10 nM) induced contraction according to the in vitro method described herein above are tabulated below.

[2] = tested on: human peripheral blood mononuclear cell (PBMC); experiment: Human PBMC in vitro model, LPS induced MCP-1 and LTB-4 levels; assay type: cell-based; conditions: for LTB-4 reduction (%) / MCP-1 reduction (%): LPS 0.1 μg/ml, 24 h
Description: Cryopreserved PBMC's (SeraCare, #72001) are thawed, washed with culture media (RPMI-1640 from Invitrogen, #61870-036+10% heat inactivated fetal bovine serum from Invitrogen, #10082-147+100 U/ml penicillin+100 μg/ml streptomycin) and tested for viability using Trypan blue (PBMC viability=96%). Cells are then resuspended to 1×10^6 cells/ml in culture media and 0.5 ml plated into 24 well culture plates (5×10^5 cells/well) before incubation for 30 minutes at 37° C. with 5% C02 prior to addition of a compound to be assessed (10 μM) or dexamethasone (1 μM). One hour thereafter, LPS (0.1 μg/ml, Salmonella abortus equi, Sigma, #L1887) are added and the cells are incubated for another 24 h before collection of the cell culture supernatants, which are assayed for the presence of MCP-1 and LTB4.
MCP-1 levels are quantified employing a Luminex-based assay according the manufacturer's instructions. Data are collected using a Luminex 100 (Luminex Corporation, Austin, Tex.). Standard curves are generated using a 5-parameter logistic curve fitting equation weighted by 1/y (StarStation V 2.0; Applied Cytometry Systems, Sacramento, Calif.). Each sample reading are interpolated from the appropriate standard curve. Calculated concentrations are multiplied by the appropriate dilution factor when necessary.
LTB4 levels are quantified by ELISA following the manufacturer's instructions. Absorbance readings are detected using a ThermoMax microplate reader (Molecular Devices). Standard curves are generated using a 4-parameter logistic curve fitting equation (SoftMax Pro 4.7.1; Molecular Devices). Each sample reading are interpolated from the appropriate standard curve. Duplicate interpolated sample values are averaged and standard deviations are calculated. Calculated concentrations are multiplied by the appropriate dilution factor.
The reults in lowering MCP-1 and LTB-4 levels compared to vehicle (negative control) and 1 μM dexamethasone (positive control) are given below.

male Sprague Dawley rats = experiment: Carbamylcholine-induced bronchospasm in anaesthetised rats (Konzett-Rossler method); assay type: in vivo; conditions: rat; for Bronchodilatating effect on carbamylcholine chloride induced bronchoconstriction: intra-tracheal, administered at 6 mM, smaller increase in pulmonary resistance compared to vehicle; for Total pulmonary resistance increase from baseline post carbamylcholine chloride challenge, Average: single intra-tracheal nebulization of 100 μl at 6 mM, 30 min before carbamylcholine chloride 275 μg/kg iv
Description: The bronchocondilatator effect of example 1 and (2E)-1-(5,8-dichloro-3,4-dihydro-6,7-dihydroxy-2(1H)-isoquinolinyl)-3-[6-(trifluoromethyl)-3-pyridinyl]-2-propen-1-one was evaluated using the Konzett-Rossler method (cf. Konzett H, Rössler R (1940) Versuchsanordung zu Untersuchungen an der Bronchialmuskulatur. Naunyn-Schmiedeberg's Arch Exp Path Pharmakol 192:71-74) in the anaesthetised rat following single intra-tracheal administration.
The study involved male Sprague Dawley rats, weighing between 291.1 g and 347.7 g on the day of the test.
Animals were put on to a water-only fast the day prior to the test. On the day of the test, animals were anaesthetised using sodium pentobarbital at a dose of 60 mg/kg by intraperitoneal route in a volume of 1 mL/kg, then at 2 mg/mL by the intravenous route at a rate of 10 mL/kg/hour throughout the test. The trachea was quickly cannulated to enable artificial respiration. The animals were ventilated with an air flow of approximately 1 mL per 100 g at a rate of 54 cycles/minute. Total pulmonary resistance was measured continuously using a pressure transducer, fitted to a side branch of the tracheal cannula. Arterial blood pressure and heart rate were obtained by placing the telemetric pressure sensor of telemetric transmitter HD-S11 in the carotid artery. A jugular vein was cannulated for the intravenous administration of carbamylcholine chloride. The temperature of the animal was kept between 36.0° C. and 39.3° C. using an electric blanket. At the end of the surgical phase, animals were pre-medicated with a solution of pancuronium bromide at 0.2 mg/mL by the intravenous route at a rate of 10 mL/kg/hour throughout the test to avoid spontaneous respiration. Ventilatory flow was adjusted in such way as to obtain a baseline stabilisation of the pulmonary pressure resistance between 6.5 to 10.5 mmHg (i.e. approximately between 10 to 15% of maximum pulmonary resistance). About 15 minutes after the end of the surgical phase and stabilisation of the pulmonary pressure signal, the animals were dosed with: • 1. Example 1; • 2. (2E)-1-(5,8-dichloro-3,4-dihydro-6,7-dihydroxy-2(1H)-isoquinolinyl)-3-[6-(trifluoromethyl)-3-pyridinyl]-2-propen-1-one; or • 3. Their vehicle
by intra-tracheal nebulization in a volume of 100 μl using a Microsprayer aerosolizer (Penncentury).
Thirty minutes later, carbamylcholine chloride at 275 μg/kg was administered using an infusion pump in a volume of 3.33 mL/kg over a 5-minute period. Total pulmonary resistance, mean, systolic and diastolic arterial blood pressure and heart rate were continuously recorded over the test.
Example 1 was formulated by dissolving 5.5 mg in 2015 μl vehicle (200 mM (2-hydroxypropyl)-β-cyclodextrin, 49 mM L-lysine, 6.2 mM L-ascorbic acid in MilliQ water). […]

[3] = compound 10 μM, compared to vehicle
[4] = dexamethasone 1 μM (positive control)

**Q.** With O=C(COc1ccc(C(F)(F)F)nc1)N1CCc2c(Cl)c(O)c(O)c(Cl)c2C1 [1-(5,8-Dichloro-6,7-dihydroxy-3,4-dihydroisoquinolin-2(1H)-yl)-2-(6-(trifluoromethyl)pyridine-3-yloxy)ethanone, reference compound] as the molecule, how does the solubility at 20 h [1] read?
**A.** 76.7 µg/mL (≈ 175 µM)

**Q.** With O=C(C1CCCN(c2ccc(F)cn2)C1)N1CCc2c(Cl)c(O)c(O)c(Cl)c2C1 (stereo not drawn) [Example 4, (5,8-Dichloro-6,7-dihydroxy-3,4-dihydroisoquinolin-2(1H)-yl)(1-(5-fluoropyridin-2-yl)piperidin-3-yl)methanone] as the molecule, how does the “Remaining contraction (%)” value (human bronchiols) read?
**A.** 51%

**Q.** Which “Remaining contraction (%)” value (human bronchiols) does the source give for Cc1nc(C(F)(F)F)ccc1SCC(=O)N1CCc2c(Cl)c(O)c(O)c(Cl)c2C1 [Example 2, 1-(5,8-Dichloro-6,7-dihydroxy-3,4-dihydroisoquinolin-2(1H)-yl)-2-(2-methyl-6-(trifluoromethyl)pyridin-3-ylthio)ethanone] here?
**A.** 14%

**Q.** For O=C(CSc1ccc(C(F)(F)F)nc1)N1CCc2c(Cl)c(O)c(O)c(Cl)c2C1 [Example 1, 1-(5,8-Dichloro-6,7-dihydroxy-3,4-dihydroisoquinolin-2(1H)-yl)-2-(6-(trifluoromethyl)pyridin-3-ylthio)ethanone], which solubility at 20 h [1] is on record?
**A.** 16.6 µg/mL (≈ 36.6 µM)

**Q.** What about the “Remaining contraction (%)” value (human bronchiols) of the same molecule?
**A.** 7%

**Q.** What about the “Reduction of inflammatory markers (MCP-1 and LTB-4)” value ([2]; 10 μM, LPS stimulated PBMC) of the same molecule?
**A.** significant reduction

**Q.** And the “LTB-4 reduction (%)” value [2, 3]?
**A.** 20.7%

**Q.** What about the “MCP-1 reduction (%)” value [2, 3] of the same molecule?
**A.** 70.8%

**Q.** What about the “Bronchodilatating effect on carbamylcholine chloride induced bronchoconstriction” value (male Sprague Dawley rats) of the same molecule?
**A.** had a bronchodilatating effect

**Q.** And the “Total pulmonary resistance increase from baseline post carbamylcholine chloride challenge, Average” value (male Sprague Dawley rats)?
**A.** 2.33 mmHg

**Q.** Which results are given for C[C@@H]1C[C@H]2[C@@H]3CCC4=CC(=O)C=C[C@]4(C)[C@@]3(F)[C@@H](O)C[C@]2(C)[C@@]1(O)C(=O)CO [Dexamethasone, dexamethasone, reference compound]?
**A.** LTB-4 reduction (%) [2, 4]: 23.4%; MCP-1 reduction (%) [2, 4]: 15.5%

**Q.** Which “Bronchodilatating effect on carbamylcholine chloride induced bronchoconstriction” value (male Sprague Dawley rats) does the source give for O=C(/C=C/c1ccc(C(F)(F)F)nc1)N1CCc2c(Cl)c(O)c(O)c(Cl)c2C1 [(2E)-1-(5,8-dichloro-3,4-dihydro-6,7-dihydroxy-2(1H)-isoquinolinyl)-3-[6-(trifluoromethyl)-3-pyridinyl]-2-propen-1-one, reference compound] here?
**A.** had a bronchodilatating effect

**Q.** What about the “Total pulmonary resistance increase from baseline post carbamylcholine chloride challenge, Average” value (male Sprague Dawley rats) of the same molecule?
**A.** 2.86 mmHg

**Q.** With Cc1cc(C(F)(F)F)cc(SCC(=O)N2CCc3c(Cl)c(O)c(O)c(Cl)c3C2)n1 [Example 3, 1-(5,8-Dichloro-6,7-dihydroxy-3,4-dihydroisoquinolin-2(1H)-yl)-2-(6-methyl-4-(trifluoromethyl)pyridin-2-ylthio)ethanone] as the molecule, how does the “Remaining contraction (%)” value (human bronchiols) read?
**A.** 16%
